Results as given in patent US20240116856A1 (Young BioPharma, LLC, priority 2020, published 2024).
In brackets after ≈: the same amount, converted by molar mass. Where two headings read alike, the source gives them in different places.

Tests used:
[1] = target: T1, human TRPA1 (Homo sapiens, UniProt O75762); test: In vitro Ca2+ flux counter-screen in human TRPA1 overexpressing cells; format: cell-based; details: counter-screen; read-out: TRPA1 EC50
T1 construct: expressed in transfected cells; host or cells: overexpressing cells
T1 sequence (O75762 whole entry): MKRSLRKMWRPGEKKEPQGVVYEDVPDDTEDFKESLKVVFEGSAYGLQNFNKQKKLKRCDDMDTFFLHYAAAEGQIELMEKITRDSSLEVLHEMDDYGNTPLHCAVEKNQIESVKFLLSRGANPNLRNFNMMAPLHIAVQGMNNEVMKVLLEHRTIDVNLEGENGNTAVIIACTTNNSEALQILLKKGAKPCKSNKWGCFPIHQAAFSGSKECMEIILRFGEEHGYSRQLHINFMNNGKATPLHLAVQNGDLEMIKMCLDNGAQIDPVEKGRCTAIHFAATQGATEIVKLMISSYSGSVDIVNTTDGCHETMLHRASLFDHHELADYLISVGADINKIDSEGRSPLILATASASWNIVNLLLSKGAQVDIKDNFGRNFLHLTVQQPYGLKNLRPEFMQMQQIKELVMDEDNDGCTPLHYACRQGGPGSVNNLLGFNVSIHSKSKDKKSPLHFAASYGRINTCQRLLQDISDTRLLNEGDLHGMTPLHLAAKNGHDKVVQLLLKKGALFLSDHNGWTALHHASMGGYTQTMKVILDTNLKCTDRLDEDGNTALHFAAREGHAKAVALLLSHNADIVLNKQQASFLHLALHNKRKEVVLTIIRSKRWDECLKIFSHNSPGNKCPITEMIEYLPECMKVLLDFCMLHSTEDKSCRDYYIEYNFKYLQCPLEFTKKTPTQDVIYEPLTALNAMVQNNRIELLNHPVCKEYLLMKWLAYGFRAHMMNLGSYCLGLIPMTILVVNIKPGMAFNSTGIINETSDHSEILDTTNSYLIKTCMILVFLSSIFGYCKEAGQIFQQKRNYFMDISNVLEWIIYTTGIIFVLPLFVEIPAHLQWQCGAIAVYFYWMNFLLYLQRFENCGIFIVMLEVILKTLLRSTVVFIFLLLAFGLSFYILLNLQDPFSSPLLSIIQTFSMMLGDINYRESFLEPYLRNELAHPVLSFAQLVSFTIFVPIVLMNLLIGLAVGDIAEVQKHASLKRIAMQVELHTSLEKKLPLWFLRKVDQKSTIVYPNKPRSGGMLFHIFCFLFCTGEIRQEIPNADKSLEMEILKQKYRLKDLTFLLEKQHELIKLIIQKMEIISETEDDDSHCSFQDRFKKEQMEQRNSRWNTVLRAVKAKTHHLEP

[2] = Aqueous solubility; format: physicochemical
Method: Chemical analysis and solubility tests were performed blind to the identity of the samples. Intermediates and final analogs were analyzed by NMR (JEOL 400 MHz NMR) and HPLC/MS (Waters Acquity UPLC with SQD Mass Spec) to confirm structures and purity. Final compounds were purified to achieve >95% purity based on HPLC analysis.

[3] = Operant Pain Tolerance Assay; format: in vivo; details: intraplantar
Method: Model 3—The ability of YB-16 to increase pain tolerance was tested using a newly published Operant Pain Tolerance Assay (eNeuro 2020, 7, ENEURO.0210-19.2020). In the assay, mice were trained to seek a sucrose reward that was on a hot 42° C. plate (versus no reward on a neutral 30° C. plate). It was noticed that intraplantar YB-16 treated mice with paw inflammatory injury [induced by Complete Freund's adjuvant (CFA) 24 hrs prior to treatment] trended to spend 145% more time on the hot side of the assay but not necessarily additional time near the sucrose bottle compared to vehicle treated mice (FIG. 10B).

[4] = test system: NCI-H460; test: Human cancer cell growth inhibition assay (ATP assay), NCI-H460; format: cell-based; details: Homo sapiens, NCI-H460, 96 h; 4 days; Means±SEM from three independent experiments; read-out: NCl-H460, IC50
[5] = test system: OVCAR-8; test: Human cancer cell growth inhibition assay (ATP assay), OVCAR-8; format: cell-based; details: Homo sapiens, OVCAR-8, 96 h; 4 days; Means±SEM from three independent experiments; read-out: OVCAR-8, IC50
[6] = test system: MDA-MB-231 cell invasion; test: Cancer cell invasion assay, MDA-MB-231; format: cell-based, human; details: 24 h
Summary of the method: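 Transwell inserts were coated with membrane matrix gel (0.5-0.6 mg/mL) and loaded with 1×10^5 human cancer cells in RPMI 1640, with 10% FBS medium below as attractant. Compound or DMSO went into both compartments for 24 h at 37 °C. Invaded cells were fixed, crystal-violet stained, counted in 5 random fields and expressed as % of DMSO control.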

[7] = test system: NCI-H460 cell invasion; test: Cancer cell invasion assay, NCI-H460; format: cell-based, human; details: 24 h
Method: A cancer cell invasion assay was developed based on literature protocols (Methods 2005, 37, 208; EMBO J 2002, 21, 6289; Cellular Signalling 2012, 24, 1276.). Membrane matrix gel (Cat #A1413201, ThermoFisher) was diluted in ice-cold, serum-free RPMI 1640 Medium (Cat #31800022, ThermoFisher) at a concentration of 0.5-0.6 mg/mL. Then it was added to the upper compartment (100 μL per cup) of millicell inserts (Cat #PI8P01250, ThermoFisher) placed in a 24-well plate (Part no. 229123, Celltreat). The plate was incubated at 37° C. for 2 h to allow the liquid gel to solidify. RPMI 1640 Medium supplemented with 10% FBS (300 μL) was added to the well of the plate (lower compartment) as attractant, then DMSO or compounds were added. Human cancer cells (1×10^5 cells in 200 μL of RPMI 1640 Medium) were added to the upper compartment of the insert, then DMSO or compounds were added. After the plate was incubated at 37° C. for 24 h, the cells were fixed on the lower side of the insert membrane with 4% formaldehyde and stained with 1% crystal violet (Part no. IS12146, Innovating Science). The invaded cells on the lower side of the filter were counted under an inverted microscope equipped with either a 4× or a 10× objective (FIG. 11). The cell numbers from 5 random views were averaged and plotted as percentage against the DMSO control (FIG. 12A).

[8] = intraplantar; for reduction of first phase spontaneous behavior: 5-10 g dose

## COc1cc(CNC(=O)CCCC/C=C/C(C)C)ccc1O [Capsaicin, trans-8-methyl-N-vanillyl-6-nonenamide, reference compound]
[1]
  EC50: > 10 µM
[2]
  solubility: 13 µg/mL (≈ 42.6 µM)
[3]
  sedation in operant pain tolerance assay: inflammatory injury with sedation
[3]; paw inflammatory injury (CFA)
  sensitivity to hot plate after inflammatory injury: Weak trend for reduced sensitivity to
[4]
  IC50: 200 ± 65 µM
[5]
  IC50: 234 ± 31 µM
[6]
  inhibition of MDA-MB-231 cell invasion: dose-dependently inhibited
[7]
  inhibition of NCI-H460 cell invasion: dose-dependently inhibited
[8]
  maximum tolerated dose (MTD): 5 g
[8]; 2 hr prior to formalin
  reduction of first phase spontaneous behavior: 44% reduction in first phase pain
  effect in the second phase of the formalin test: not statistically significant
  effect on formalin spontaneous pain-like behavior: reduce spontaneous pain-like behavior in a dose-related manner
[8]; 2 hr prior to formalin, listed as capsaicin
  reduction of first phase spontaneous behavior: 44%
[8]; 10 g dosing group
  animals with sedation: 20%
[8]; listed as capsaicin
  animal death and sedation in formalin test: One of the capsaicin treated animals died
